From the Kinase Knowledgebase extract (Sharma et al. 2016)

Legend:
CDK2 (Human) = CDK2 (Human) (UniProt P24941); experiment: Enzyme Assay
EGFR (human) = EGFR (human) (UniProt P00533)
EGFR (human), sequence (P00533 whole entry, looked up): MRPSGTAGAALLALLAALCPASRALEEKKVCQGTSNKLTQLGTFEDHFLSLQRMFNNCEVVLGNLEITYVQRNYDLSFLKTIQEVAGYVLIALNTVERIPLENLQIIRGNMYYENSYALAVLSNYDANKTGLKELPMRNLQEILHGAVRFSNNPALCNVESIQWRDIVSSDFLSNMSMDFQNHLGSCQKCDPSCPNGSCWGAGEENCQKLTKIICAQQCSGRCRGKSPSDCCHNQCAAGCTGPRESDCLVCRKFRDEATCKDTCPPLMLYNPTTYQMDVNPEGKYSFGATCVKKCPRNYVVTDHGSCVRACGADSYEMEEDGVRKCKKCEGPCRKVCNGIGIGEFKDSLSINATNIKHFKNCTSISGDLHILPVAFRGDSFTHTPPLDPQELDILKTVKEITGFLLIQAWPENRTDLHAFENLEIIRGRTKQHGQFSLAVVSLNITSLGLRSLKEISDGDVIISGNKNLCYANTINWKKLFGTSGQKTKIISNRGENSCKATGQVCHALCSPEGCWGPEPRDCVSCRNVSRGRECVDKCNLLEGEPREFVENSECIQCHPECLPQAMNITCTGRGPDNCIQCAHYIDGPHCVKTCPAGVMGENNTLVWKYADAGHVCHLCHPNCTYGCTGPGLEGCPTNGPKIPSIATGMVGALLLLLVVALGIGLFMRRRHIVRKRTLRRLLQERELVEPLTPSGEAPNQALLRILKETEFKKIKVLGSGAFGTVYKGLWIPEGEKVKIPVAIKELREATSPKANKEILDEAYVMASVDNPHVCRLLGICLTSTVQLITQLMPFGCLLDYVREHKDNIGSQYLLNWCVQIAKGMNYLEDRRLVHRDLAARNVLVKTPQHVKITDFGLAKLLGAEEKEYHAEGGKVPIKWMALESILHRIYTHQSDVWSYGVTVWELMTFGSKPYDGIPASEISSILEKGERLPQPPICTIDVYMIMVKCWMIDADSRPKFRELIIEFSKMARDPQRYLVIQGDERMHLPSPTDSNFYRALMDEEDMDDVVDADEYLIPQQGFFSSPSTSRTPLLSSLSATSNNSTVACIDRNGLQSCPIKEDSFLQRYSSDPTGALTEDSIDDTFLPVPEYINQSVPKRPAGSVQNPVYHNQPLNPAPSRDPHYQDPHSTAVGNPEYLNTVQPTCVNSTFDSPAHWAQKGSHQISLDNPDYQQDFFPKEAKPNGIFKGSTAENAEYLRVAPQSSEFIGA

SMILES | IC50 (CDK2 (Human)) [nM] | IC50 (EGFR (human)) [nM]
Cc1[nH]nc2c1N=C(c1ccccc1F)c1cc(Cl)ccc1N2 | 190 | –
Cc1[nH]nc2c1N=C(c1ccccc1F)c1cc(C#N)ccc1N2 | 16 | 10900
Cc1[nH]nc2c1N=C(c1ccccc1F)c1cc(C(N)=O)ccc1N2 | 17 | –
Cc1[nH]nc2c1N=C(c1ccccc1Cl)c1cc(NS(=O)(=O)N(C)C)ccc1N2 | 46 | –
Cc1[nH]nc2c1N=C(c1ccccc1Cl)c1cc(N)ccc1N2 | 88 | 989
Cc1[nH]nc2c1N=C(c1ccccc1Cl)c1cc(NS(C)(=O)=O)ccc1N2 | 24 | –
CC(=O)Nc1ccc2c(c1)C(c1ccccc1Cl)=Nc1c(n[nH]c1C)N2 | 38 | 726
COc1ccc2c(c1)C(c1ccccc1Cl)=Nc1c(n[nH]c1C)N2 | 320 | –
Cc1[nH]nc2c1N=C(c1ccccc1Cl)c1cc(Cl)ccc1N2 | 440 | –
Cc1[nH]nc2c1N=C(c1ccccc1)c1cc(Cl)ccc1N2 | 490 | –
